Experimental findings from patent US20090291945A1, “CYSTEINE PROTEASE INHIBITORS” (Teijin Pharma Limited, priority 2008, published 2009) are described below.

Data set [1] can be described thus: Metabolic stability test using human liver microsome. It is filed as in vitro ADME. Particulars: NADPH, 37° C., 25 minutes versus 0 minute, LC/MS peak area. The method, then: For the compounds synthesized according to the method of the above Examples and the compounds of formula (B) (the compounds disclosed in WO2002/070517), the metabolic stability test using the human liver microsome was performed and the residual rate of each compound was calculated.
To a human liver microsome solution (950 μL) was added a test compound solution (10 μL, 100 μM, acetonitrile solution) on an ice bath and the solution was divided into two equal parts, solution A and solution B. Note that the composition of the human liver microsome solution was as follows.
20 mg/mL protein human liver microsome (Xenotech LLC Lenexa, US): 10 μL 500 mM potassium phosphate buffer solution (pH 7.4): 200 μL 10 mM EDTA solution: 100 μL 60 mM MgCl2 solution: 50 μL 100 mM glucose-6-phosphate solution: 50 μL 100 I.U./mL glucose-6-phosphate dehydrogenase solution: 10 μL purified water: 530 μL
To the solution A (480 μL) was added acetonitrile (500 μL) on an ice bath, and then 25 mM NADPH solution (20 μL) was added. After vortexing, the mixture was centrifuged (3,000 rpm) at 4° C. for 10 minutes, and the supernatant was taken as the sample at the reaction time of 0 minute.
To the solution B (480 μL) was added 25 mM NADPH solution (20 μL). The mixture was incubated at 37° C. for 25 minutes. The reaction was quenched with acetonitrile (500 μL) and vortexing. The mixture was centrifuged (3,000 rpm) at 4° C. for 10 minutes, and the supernatant was taken as the sample at the reaction time of 25 minutes.
LC/MS measurement was performed for the samples at the reaction time of 0 minute and the reaction time of 25 minutes. Based on the peak area of the target molecular weight in the MS measurement, the residual rate of the sample at the reaction time of 25 minutes to the sample at the reaction time of 0 minute was calculated in percentage.

For data set [2], the target named is T1, cathepsin K (Homo sapiens, UniProt P43235).
T1 construct: the active enzyme was obtained as the enzyme fraction by using detergent containing lysis buffer; made in house; host or cells: HEK293T (GenHunter Corporation), transient expression; detergent lysate used as enzyme fraction
T1 sequence (P43235 115-329): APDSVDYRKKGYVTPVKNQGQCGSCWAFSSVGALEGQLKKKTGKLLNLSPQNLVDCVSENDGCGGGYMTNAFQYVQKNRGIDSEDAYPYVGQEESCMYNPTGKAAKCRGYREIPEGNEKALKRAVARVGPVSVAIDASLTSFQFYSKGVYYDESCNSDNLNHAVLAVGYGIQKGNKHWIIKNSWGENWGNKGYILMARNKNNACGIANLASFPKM
Put plainly: Cathepsin K inhibitory activity (fluorescent substrate Z-Leu-Arg-MCA). It is filed as biochemical. The conditions noted are these: enzyme expressed in HEK293T, 15 min preincubation, 30 min reaction at room temperature, pH 5.5; for IC50: read-out: Activity Intensity (cathepsin K inhibitory activity, pIC50 class) (converted). In a few lines:
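Enzyme was HEK293T-expressed cathepsin K in pH 5.5 acetate buffer with 2 mM DTT, preincubated 15 min at room temperature with compound. Reaction started with Z-Leu-Arg-MCA (solution prepared at 10 μM), run 30 min, and AMC fluorescence read at 355/460 nm. IC50 taken from the curve of % inhibition vs DMSO.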

Turning to `CC[C@@H](CNc1ccc(OCCCC(=O)O)cc1OC)NC(=O)[C@H](CC(C)C)N[C@@H](c1ccccc1)C(F)(F)F` [Compound 155], the “Residual Rate at 25 minutes (%)” value in data set [1] worked out at 31%. Besides, the IC50 in data set [2] is at most 3.16 nM.

For `CC[C@@H](CNc1ccc(N2CCOCC2)cc1)NC(=O)[C@H](CC(C)C)N[C@@H](c1ccc(=O)n(C)c1)C(F)(F)F` [Compound 43], the “Residual Rate at 25 minutes (%)” value in data set [1] stood at 46%. Also, the IC50 in data set [2] is at most 3.16 nM.

`CC(C)(F)C[C@H](N[C@@H](c1ccccc1)C(F)(F)F)C(=O)N[C@@H](CCN)CNc1ccc(N2CCOCC2)cc1` [Compound 130]: in data set [1], the “Residual Rate at 25 minutes (%)” value was found to be 85%. Besides, the IC50 in data set [2] is 3.16 to 31.6 nM.

As to `CC[C@@H](CNc1ccc(OC)cc1OC)NC(=O)[C@H](CC(C)(C)F)N[C@@H](c1ccc(-c2ccc(S(C)(=O)=O)cc2)cc1)C(F)(F)F` [Compound 5, (2S)—N-((1S)-1-{[(2,4-dimethoxyphenyl)amino]methyl}propyl)-2-[((1S)-2,2,2-trifluoro-1-{4-[4-(methylsulfonyl)phenyl]phenyl}ethyl)amino]-4-fluoro-4-methylpentanamide], the “Residual Rate at 25 minutes (%)” value in data set [1] turned out to be 0%. Further, the IC50 in data set [2] is at most 3.16 nM.

For the compound `CC[C@@H](CNc1ccc(OC(C)C(=O)O)cc1OC)NC(=O)[C@H](CC(C)(C)F)N[C@@H](c1ccccc1)C(F)(F)F` (stereo partly drawn) [Compound 142], the “Residual Rate at 25 minutes (%)” value in data set [1] worked out at 96%. Moreover, the “Activity Intensity (cathepsin K inhibitory activity, pIC50 class)” value in data set [2] is reported as “++ (7.5≦pIC50<8.5: ++)”.

As for `COc1ccc(NC[C@H](CCS(C)(=O)=O)NC(=O)[C@H](CC(C)C)N[C@@H](c2ccc(=O)[nH]c2)C(F)(F)F)c(OC)c1` [Compound 81], in data set [1], the “Residual Rate at 25 minutes (%)” value is listed as 41%. Besides, the IC50 in data set [2] was 31.6 to 10000 nM.

As to `CC[C@@H](CNc1ccc(N2CCC[C@H](C(=O)O)C2)cc1)NC(=O)[C@H](CC(C)(C)F)N[C@@H](c1ccccc1)C(F)(F)F` [Compound 151], the “Residual Rate at 25 minutes (%)” value in data set [1] turned out to be 90%. Besides, the IC50 in data set [2] was at most 3.16 nM.

In the case of `CC[C@@H](CNc1ccc(OC2(C(=O)O)CC2)cc1OC)NC(=O)[C@H](CC(C)(C)F)N[C@@H](c1ccccc1)C(F)(F)F` [Compound 118], the “Residual Rate at 25 minutes (%)” value in data set [1] is on record as 76%. Moreover, in data set [2], the IC50 is at most 3.16 nM.

With `CC[C@@H](CNc1ccc(N2CCC(C)(C(=O)O)CC2)cc1)NC(=O)[C@H](CC(C)C)N[C@@H](c1ccccc1)C(F)(F)F` [Compound 154], the “Residual Rate at 25 minutes (%)” value in data set [1] was found to be 74%. The IC50 in data set [2] is at most 3.16 nM.

Take `CC[C@@H](CNc1ccc(OC2(C(=O)O)CC2)cc1OC)NC(=O)[C@H](CC(C)C)N[C@@H](Cc1ccccc1)C(F)(F)F` [Compound 124]: the “Residual Rate at 25 minutes (%)” value in data set [1] is on record as 87%. Besides, the IC50 in data set [2] was 3.16 to 31.6 nM.

In the case of `CC[C@@H](CNc1ccc(OC)cc1OC)NC(=O)[C@H](CC(C)(C)F)N[C@@H](c1ccccc1)C(F)(F)F` [Compound 7, (2S)—N-((1S)-1-{[(2,4-dimethoxyphenyl)amino]methyl}propyl)-2-[((1S)-2,2,2-trifluoro-1-phenylethyl)amino]-4-fluoro-4-methylpentanamide], the “Residual Rate at 25 minutes (%)” value in data set [1] worked out at 0%. In data set [2], the IC50 was at most 3.16 nM.

For the compound `CC[C@@H](CNc1ccc(N2CCOCC2)cc1)NC(=O)[C@H](CC(C)C)N[C@@H](c1ccc(F)cc1)C(F)(F)F` [Compound 36], in data set [1], the “Residual Rate at 25 minutes (%)” value was found to be 0%. The IC50 in data set [2] is at most 3.16 nM.

In the case of `CC[C@@H](CNc1ccc(N2CCOCC2)cc1)NC(=O)[C@H](CC(C)C)N[C@@H](c1ccc(=O)[nH]c1)C(F)(F)F` [Compound 31], the “Residual Rate at 25 minutes (%)” value in data set [1] turned out to be 77%. The IC50 in data set [2] was at most 3.16 nM.

Take `CC[C@@H](CNc1ccc(-c2ccccc2)cc1)NC(=O)[C@H](CC(C)C)N[C@@H](c1ccc(OC)nc1)C(F)(F)F` [Compound 46]: the “Residual Rate at 25 minutes (%)” value in data set [1] amounted to 65%. Besides, the IC50 in data set [2] is 31.6 to 10000 nM.

Consider `CC(C)(F)C[C@H](N[C@@H](c1ccccc1)C(F)(F)F)C(=O)N[C@@H](CCCC(=O)O)CNc1ccc(N2CCOCC2)cc1` [Compound 160, (5S)-5-{(2S)-2-[((1S)-2,2,2-trifluoro-1-phenylethyl)amino]-4-fluoro-4-methylpentanoylamino}-6-[(4-morpholin-4-ylphenyl)amino]hexanoic acid], for which the “Residual Rate at 25 minutes (%)” value in data set [1] was found to be 90%. In addition, in data set [2], the IC50 is at most 3.16 nM.

For the compound `CC(C)C[C@H](Nc1cscc1-c1ccc(N2CCNCC2)cc1)C(=O)NCCNc1ccc(OCc2ccccc2)cc1` [B, reference compound], the “Residual Rate at 25 minutes (%)” value in data set [1] is recorded as 0%.

For `CC[C@@H](CNc1ccc(OCC(=O)O)cc1OC)NC(=O)[C@H](CC(C)C)N[C@@H](c1cccnc1)C(F)(F)F` [Compound 121], the “Residual Rate at 25 minutes (%)” value in data set [1] came out at 105%. The IC50 in data set [2] is 3.16 to 31.6 nM.

Regarding `CC[C@@H](CNc1ccc(N2CCC(C(=O)O)CC2)cc1)NC(=O)[C@H](CC(C)C)N[C@@H](c1ccccc1)C(F)(F)F` [Compound 145], the “Residual Rate at 25 minutes (%)” value in data set [1] is reported as 88%. The IC50 in data set [2] was at most 3.16 nM.

For `CC[C@@H](CNc1ccc(N2CCC(C(=O)O)CC2)cc1)NC(=O)[C@H](CC(C)C)N[C@@H](Cc1ccccc1)C(F)(F)F` [Compound 153], the “Residual Rate at 25 minutes (%)” value in data set [1] is on record as 53%. In addition, the IC50 in data set [2] is 3.16 to 31.6 nM.

As for `CC[C@@H](CNc1ccc(N2CCCCC2)cc1)NC(=O)[C@H](CC(C)(C)F)N[C@@H](c1ccc(-c2ccc(S(C)(=O)=O)cc2)cc1)C(F)(F)F` [Compound 10, (2S)—N-((1S)-1-{[(4-piperidin-1-ylphenyl)amino]methyl}propyl)-2-[((1S)-2,2,2-trifluoro-1-{4-[4-(methylsulfonyl)phenyl]phenyl}ethyl)amino]-4-fluoro-4-methylpentanamide], the IC50 in data set [2] is at most 3.16 nM.

Regarding `CC[C@@H](CNc1ccc(N2CCOCC2)cc1)NC(=O)[C@H](CC(C)C)N[C@@H](c1ccc2c(c1)OCO2)C(F)(F)F` [Compound 29], in data set [2], the IC50 was at most 3.16 nM.

As for `COc1ccc(NC[C@H](CC[S+](C)[O-])NC(=O)[C@H](CC(C)C)N[C@@H](c2ccccc2)C(F)(F)F)c(OC)c1` (stereo partly drawn) [Compound 139, (2S)—N-((1S)-1-{[(2,4-dimethoxyphenyl)amino]methyl}-3-(methylsulfinyl)propyl)-2-[((1S)-2,2,2-trifluoro-1-phenylethyl)amino]-4-methylpentanamide], in data set [2], the IC50 is 31.6 to 10000 nM.

As for `CC[C@@H](CNc1ccc(OC)cc1OC)NC(=O)[C@@H](N[C@@H](c1ccccc1)C(F)(F)F)[C@@H](C)CC` [Compound 60], the IC50 in data set [2] was 3.16 to 31.6 nM.

Turning to `COc1ccc([C@H](N[C@@H](CC(C)C)C(=O)N[C@@H](CCSC)CNc2ccc(OC)cc2OC)C(F)(F)F)cc1` [Compound 67], the IC50 in data set [2] was 3.16 to 31.6 nM.

`CCOC(=O)C(F)(F)Oc1ccc(NC[C@H](CC)NC(=O)[C@H](CC(C)(C)F)N[C@@H](c2ccccc2)C(F)(F)F)c(OC)c1` [Compound 111]: in data set [2], the IC50 was 31.6 to 10000 nM.

Take `CC[C@@H](CNc1ccc(N2CCC(O)CC2)cc1)NC(=O)[C@H](CC(C)C)N[C@@H](c1ccccc1)C(F)(F)F` [Compound 108]: the IC50 in data set [2] is at most 3.16 nM.

Take `CC[C@@H](CNc1ccc(OCCCC(=O)OC)cc1OC)NC(=O)[C@H](CC(C)C)N[C@@H](c1ccccc1)C(F)(F)F` [Compound 85]: the IC50 in data set [2] is at most 3.16 nM.

In the case of `CC[C@@H](CNc1ccc(OCC[S+](C)[O-])cc1OC)NC(=O)[C@H](CC(C)(C)F)N[C@@H](c1ccc(Br)cc1)C(F)(F)F` (stereo partly drawn) [Compound 138-1, (2S)-2-{[(1S)-1-(4-bromophenyl)-2,2,2-trifluoroethyl]amino}-N-{(1S)-1-[({2-methoxy-4-[2-(methylsulfinyl)ethoxy]phenyl}amino)methyl]propyl}-4-fluoro-4-methylpentanamide], the IC50 in data set [2] is at most 3.16 nM.

Consider `CC(C)C[C@H](N[C@@H](c1ccc(=O)[nH]c1)C(F)(F)F)C(=O)N[C@@H](C)CNc1ccc(N2CCOCC2)cc1` [Compound 72], for which the IC50 in data set [2] is at most 3.16 nM.

Regarding `COc1ccc(NC[C@H](C)NC(=O)[C@H](CC(C)C)N[C@@H](c2ccc(OC)nc2)C(F)(F)F)c(OC)c1` [Compound 79], the IC50 in data set [2] was 3.16 to 31.6 nM.
